Experimental data as given in the NIST ThermoML archive (doi:10.1016/j.jct.2017.03.022).

Assay: xn = mol fraction of the nth substance listed
Details: 101 kPa, Liquid; for speed of sound: Frequency=3 MHz, Single path-length method; for mass density: Vibrating tube method

O=C1CCCN1 [2-pyrrolidinone] + CC(O)CO
Details	mass density, 303.15 K [kg/m3]	mass density, 308.15 K [kg/m3]	mass density, 313.15 K [kg/m3]	mass density, 318.15 K [kg/m3]	mass density, 323.15 K [kg/m3]	speed of sound, 303.15 K [m/s]	speed of sound, 308.15 K [m/s]	speed of sound, 313.15 K [m/s]	speed of sound, 318.15 K [m/s]	speed of sound, 323.15 K [m/s]
x1 = 0.0994	1038.42	1034.26	1030.26	1026.14	1021.99	1511.8	1497.1	1482.2	1467.6	1453
x1 = 0.1962	1047.15	1042.74	1038.53	1034.14	1029.74	1526.8	1511.5	1496.4	1481.6	1466.5
x1 = 0.3038	1056.3	1051.69	1047.29	1042.69	1038.13	1543.7	1528.1	1512.5	1497.3	1481.7
x1 = 0.4148	1065.17	1060.55	1055.91	1051.2	1046.49	1560.1	1544.3	1528.5	1513.2	1497.3
x1 = 0.5021	1071.72	1067.1	1062.38	1057.63	1052.9	1571.9	1555.9	1540	1524.6	1508.5
x1 = 0.5951	1078.36	1073.71	1069.03	1064.29	1059.57	1583.5	1567.3	1551.2	1535.7	1519.4
x1 = 0.6891	1084.67	1080.01	1075.46	1070.79	1066.14	1594.1	1577.5	1561.4	1545.9	1529.3
x1 = 0.7994	1091.64	1087.08	1082.66	1078.14	1073.64	1604.8	1588.2	1572	1556.7	1539.9
x1 = 0.8908	1097.03	1092.6	1088.37	1084.03	1079.69	1612.3	1595.6	1579.6	1563.9	1546.7
x1 = 1	1103.07	1098.99	1094.9	1090.82	1086.75	1617.7	1601.3	1585.4	1570.4	1553.5

OCCCO [propan-1,3-diol] + O=C1CCCN1
Details	mass density, 303.15 K [kg/m3]	mass density, 308.15 K [kg/m3]	mass density, 313.15 K [kg/m3]	mass density, 318.15 K [kg/m3]	mass density, 323.15 K [kg/m3]	speed of sound, 303.15 K [m/s]	speed of sound, 308.15 K [m/s]	speed of sound, 313.15 K [m/s]	speed of sound, 318.15 K [m/s]	speed of sound, 323.15 K [m/s]
x2 = 0	1046.56	1043.43	1040.28	1037.11	1033.92	1617.6	1606.2	1594.8	1583.5	1572.1
x2 = 0.1108	1052.98	1049.7	1046.4	1043.08	1039.74	1619.8	1607.5	1595.3	1583.4	1571.2
x2 = 0.2172	1059.11	1055.69	1052.25	1048.8	1045.34	1621.2	1608.3	1595.4	1582.9	1569.9
x2 = 0.3044	1064.1	1060.58	1057.04	1053.49	1049.93	1621.9	1608.6	1595.3	1582.3	1568.7
x2 = 0.4174	1070.53	1066.89	1063.24	1059.57	1055.89	1622.4	1608.5	1594.6	1581.1	1566.8
x2 = 0.5076	1075.64	1071.91	1068.17	1064.41	1060.65	1622.4	1608	1593.7	1579.9	1565.1
x2 = 0.6177	1081.83	1078	1074.17	1070.32	1066.47	1621.9	1607	1592.3	1578.2	1562.8
x2 = 0.6909	1085.92	1082.04	1078.15	1074.25	1070.34	1621.4	1606.2	1591.2	1576.8	1561.1
x2 = 0.8139	1092.77	1088.8	1084.83	1080.85	1076.87	1620.2	1604.5	1589	1574.4	1558.2
x2 = 0.8736	1096.07	1092.07	1088.06	1084.05	1080.04	1619.5	1603.5	1587.9	1573.1	1556.8
